Measured values as given in patent US20230277533A1, “THERAPEUTIC COMBINATIONS COMPRISING UBIQUITIN-SPECIFIC-PROCESSING PROTEASE 1 (USP1) INHIBITORS AND POLY (ADP-RIBOSE) POLYMERASE (PARP) INHIBITORS” (KSQ Therapeutics, Inc., priority 2020, published 2023).

Legend:
Test in all cases: Colony formation (CFU) assay
Assay type in all cases: cell-based
QGP1 = details: QGP-1; QGP1, pancreas
How it was run: (§1)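 Absorbance at 565 nm of crystal violet extracted with 10% acetic acid measures colony mass. Cells grow ~14 days in six-well plates, exposed from day 8 to USP1 inhibitor, niraparib, olaparib or DMSO.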

TGBC1TKB = details: biliary tract
How it was run: as §1

HEC151 = details: HEC151, endometrial
How it was run: as §1

SNU213 = details: SNU213, pancreas
How it was run: as §1

LUDLU1 = details: LUDLU-1; LUDLU1, lung
How it was run: as §1

SKOV3_OR1a1null = details: ovary
How it was run: as §1

RT11284 = details: Homo sapiens, RT112/84; RT11284, bladder
How it was run: as §1

UBLC1 = details: UBLC1, bladder
How it was run: as §1

SKOV3_ATMnull = details: ovary
How it was run: as §1

SCC25 = details: Homo sapiens, SCC-25; SCC25, head and neck
How it was run: as §1

TCCSUP = details: Homo sapiens, TCC-SUP, bladder
How it was run: as §1

GSU = details: stomach
How it was run: as §1

HUO3N1 = details: HUO3N1, bone
How it was run: as §1

HS695T = details: Homo sapiens, Hs 695T, skin
How it was run: as §1

HPAFII = details: Homo sapiens, HPAF-II, pancreas
How it was run: as §1

OV56 = details: OV56, ovary
How it was run: as §1

SN12C = details: Homo sapiens, kidney
How it was run: as §1

YKG1 = details: Homo sapiens, YKG-1; YKG1, nervous system
How it was run: as §1

SNU1041 = details: SNU1041, head and neck
How it was run: as §1

T174 = details: T174, breast
How it was run: as §1

TE9 = details: Homo sapiens, TE-9; TE9, esophagus
How it was run: as §1

SAOS2 = details: Homo sapiens, SAOS-2; SAOS2, bone
How it was run: as §1

TE14 = details: TE14, esophagus
How it was run: as §1

SNU119 = details: SNU119, ovary
How it was run: as §1

U2OS = details: Homo sapiens, bone
How it was run: as §1

A2058 = details: Homo sapiens; A2058, skin
How it was run: as §1

JHOS2 = details: for IC50: JHOS2, ovary; for activity as single agents: JHOS2, up to 300 nM
How it was run: as §1

HBCx19 = details: HBCx19, breast
How it was run: as §1

HCC2108 = details: HCC2108, lung
How it was run: as §1

HCC202 = details: HCC202, breast
How it was run: as §1

HCC1395 = details: Homo sapiens; HCC1395, breast
How it was run: as §1

HS870T = details: bone
How it was run: as §1

RL952 = details: Homo sapiens, RL95-2; RL952, uterus
How it was run: as §1

LU99 = details: Homo sapiens, Lu-99; LU99, lung
How it was run: as §1

PECAPJ49 = details: PECAPJ49, head and neck
How it was run: as §1

DOTC24510 = details: Homo sapiens, DoTc2-4510; DOTC24510, cervix
How it was run: as §1

CAPAN2 = details: Homo sapiens, Capan-2; CAPAN2, pancreas
How it was run: as §1

NCIH1573 = details: Homo sapiens, NCI-H1573; NCIH1573, lung
How it was run: as §1

NC(=O)c1cccc2cn(-c3ccc([C@@H]4CCCNC4)cc3)nc12 [Niraparib, niraparib, reference compound]
little to no activity: activity as single agents (JHOS2)
36.9 nM: IC50 (HS695T)
88.6 nM: IC50 (LU99)
58.4 nM: IC50 (A2058)
103 nM: IC50 (HCC202)
95.5 nM: IC50 (HCC2108)
201 nM: IC50 (SAOS2)
8.26 nM: IC50 (HCC1395)
15.2 nM: IC50 (NCIH1573)
> 300 nM: IC50 (QGP1) | IC50 (TGBC1TKB) | IC50 (HEC151) | IC50 (SNU213) | IC50 (LUDLU1) | IC50 (SKOV3_OR1a1null) | IC50 (RT11284) | IC50 (UBLC1) | IC50 (SKOV3_ATMnull) | IC50 (SCC25) | IC50 (TCCSUP) | IC50 (GSU) | IC50 (HUO3N1) | IC50 (HPAFII) | IC50 (OV56) | IC50 (SN12C) | IC50 (YKG1) | IC50 (SNU1041) | IC50 (T174) | IC50 (TE9) | IC50 (TE14) | IC50 (U2OS) | IC50 (JHOS2) | IC50 (HBCx19) | IC50 (HS870T) | IC50 (RL952) | IC50 (PECAPJ49) | IC50 (CAPAN2)
39 nM: IC50 (SNU119)
30.4 nM: IC50 (DOTC24510)

COc1ncnc(C2CC2)c1-c1ncc2cnn(Cc3ccc(-c4nc(C(F)(F)F)cn4C)cc3)c2n1 [Formula II, 6-(4-cyclopropyl-6-methoxypyrimidin-5-yl)-1-(4-(1-methyl-4-(trifluoromethyl)-1H-imidazol-2-yl)benzyl)-1H-pyrazolo[3,4-d]pyrimidine]
64.7 nM: IC50 (SN12C)
35.4 nM: IC50 (LU99)
227 nM: IC50 (NCIH1573)
little to no activity: activity as single agents (JHOS2)
> 300 nM: IC50 (QGP1) | IC50 (TGBC1TKB) | IC50 (HEC151) | IC50 (SNU213) | IC50 (LUDLU1) | IC50 (SKOV3_OR1a1null) | IC50 (RT11284) | IC50 (UBLC1) | IC50 (SKOV3_ATMnull) | IC50 (SCC25) | IC50 (TCCSUP) | IC50 (GSU) | IC50 (HUO3N1) | IC50 (HS695T) | IC50 (HPAFII) | IC50 (OV56) | IC50 (YKG1) | IC50 (SNU1041) | IC50 (T174) | IC50 (TE9) | IC50 (SAOS2) | IC50 (TE14) | IC50 (SNU119) | IC50 (U2OS) | IC50 (A2058) | IC50 (JHOS2) | IC50 (HBCx19) | IC50 (HCC2108) | IC50 (HCC202) | IC50 (HCC1395) | IC50 (HS870T) | IC50 (RL952) | IC50 (PECAPJ49) | IC50 (DOTC24510) | IC50 (CAPAN2)
